# Measurements as given in US10590178B2 (priority 2014, dated 2020).
# Assays:
# Met6-8MAP = test: Serum antibody ELISA after immunization, plates coated with Met6-8MAP; assay type: in vivo; settings: after first booster; serum diluted 1:200; alum adjuvant; OD 492 nm
# Description: Sera antibody titers were analyzed by ELISA. For DC-based immunization, the control groups were mice given DCs alone, or given DPBS alone, for all three injections. […] Fbb-8MAP or Met6-8MAP was dissolved at 5 μg/ml in PBS (pH 7.4), and used to coat 96-well ELISA plates with duplicate, serial, 2-fold dilutions of samples of each immune serum and control serum. Each well was treated with secondary antibody (goat anti-mouse polyvalent Ig-HRP, Sigma) and substrate (o-phenylenediamine and H2O2). Optical density was measured at 492 nm.
# Serum samples were collected 14 days after immunization, diluted 1:200, and tested by ELISA on plates coated with the applicable peptide-8MAP conjugate. […] However, the immune responses to the MAP conjugates were substantially weaker than those induced by peptide-pulsed DC immunization.
# C. albicans = test: Chimeric double peptide-pulsed DC vaccination versus single peptides and mixture, lethal Candida challenge in mice (survival, kidney CFUs); settings: for kidney CFUs: compared to non-immune mice / other vaccines
# Description: Different groups of dendritic cells (DCs) were pulsed in vitro with Fba peptide, Met6 peptide, Fba-Met6 chimeric double peptide, or a mixture of the two peptides Fba and Met6. Briefly, DCs in culture were pulsed with the peptide antigen (1 μM) on day 6. On day 7, PGE2 (10^−7 M) was added along with LPS (2 μg/ml, Sigma) for 24 h. On day 9, antigen-pulsed DCs were washed extensively and 5×10^5 cells in 200 μl DPBS were injected into mice i.p. with complete Freund's adjuvant as the priming dose. The mice were boosted i.p. at day 14 with fresh antigen-pulsed DCs and adjuvant. The mice were again boosted i.p. at day 28 with fresh antigen-pulsed DCs, but the final boost used no adjuvant.
# Two weeks after the second boost, immunized and control mice were both infected i.v. with a lethal dose of live C. albicans yeast cells (5×10^5 in 0.1 ml of DPBS), prepared as described above. Passively immunized mice (see below) also received the same challenge dose. Protection was evaluated by monitoring animal survival for 50-60 days. The mice were monitored for the development of a moribund state: defined as being listless, disinterested in food or water, and nonreactive to finger probing. Once a mouse was deemed moribund, it was sacrificed and its kidneys were homogenized in DPBS and plated onto a nutrient agar to determine the number of colony forming units of yeast (CFUs).
Sequence,antibody response compared to negative control mice (DPBS or adjuvant only) (Met6-8MAP),kidney CFUs (C. albicans; listed as Fba-Met6 chimeric double peptide vaccine),kidney CFUs (C. albicans; listed as Fba-Met6 conjugate),survival rate / protection (C. albicans; up to 60 days (end of experiment)) [%]
PRIGGQRELKKITE (Met6 peptide) [14-mer peptide from C. albicans cell wall protein Met6],4-5 fold,,,
YGKDVKDLFDYAQEKKPRIGGQRELKKITE [Fba-KK-Met6],,only one mouse in that group exhibited any detectable kidney CFUs,much lower CFUs in kidneys,100
